One molecule from ChEMBL document CHEMBL1147236, “Semiplenamides A-G, fatty acid amides from a Papua New Guinea collection of the marine cyanobacterium Lyngbya semiplena” (J Nat Prod, 2003) can be followed below.

The assay relates to RBL-2H3. The following applies: Rattus norvegicus.

One may read the Km as the concentration of substrate that gives half-maximal velocity.

The structures appear in SMILES notation.

Description: Activity at AMT in rat RBL-2H3 cells

Turning to `CCCCC/C=C\C/C=C\C/C=C\C/C=C\CCCC(=O)NCCO`, the Michaelis-Menten constant (Km) worked out at 9.3 µM.
